Test results: US20150322033A1, “ANTIBACTERIAL AGENT” (priority 2012, published 2015)
In brackets after ≈: the same amount, converted by molar mass.

System: S. aureus Mu50 NR1-1
Experiment: MIC by broth microdilution, S. aureus Mu50 NR1-1
Format: cell-based
Details: Staphylococcus aureus, MU50NR11; Example 3, Table 13; read-out: MIC (mg/L) Mu50 NR1-1 (S80F, w)
Procedure: MIC values of the flavones and quinolone for the strains were measured in the same manners as those of Example 1, except that S. aureus Mu50 NR-1 was also used as Staphylococcus aureus in addition to S. aureus FDA209P and S. aureus Mu50, cell suspensions of the strains were prepared.
S. aureus Mu50 NR1-1 mentioned in Table 13 is a strain selected stepwise from the clinically isolated S. aureus Mu50 strain with deoxynybomycin, and it has a topoisomerase IV encoded by parC in which a […] (see, Hiramatsu K. et al., J. Antimicrob. Agents, 2012, June; 39 (6), 478-85).
In Table 13, the descriptions in the parentheses after the strains indicate the mutated amino acid residue and its position, as represented by (the mutation of topoisomerase IV resulting from the mutation of parCand the mutation of DNA gyrase resulting from the mutation of gyrA). The character “w” means wild-type, representing without mutation.

Row | SMILES | MIC
1 | C[C@H]1COc2c(N3CCN(C)CC3)c(F)cc3c(=O)c(C(=O)O)cn1c23 [Levofloxacin, levofloxacin, reference compound] | 1 mg/L (≈ 2.77 µM)
2 | O=c1cc(-c2ccc(O)cc2)oc2cc(O)cc(O)c12 [No. 7, 4′,5,7-Trihydroxyflavone] | > 128 mg/L
